The test deals with T1, GPR40 of human origin (Homo sapiens, UniProt O14842).
T1 construct: expressed in transfected cells
Briefly: Agonist action on GPR40 of human origin (intracellular Ca2+ change). In kind it is cell-based. Conditions: CHO cell strain stably expressing GPR40 of human origin; change in Ca2+ concentration, fluorescent calcium indicator. As for the experimental part: Pharmacological Test Example 1: Agonist Action on GPR40 of Human Origin
A CHO cell strain stably expressing GPR40 of human origin was used to determine the agonist action of a subject compound. This cell strain was seeded in a clear bottom 96 well plate at 4×10^4 cells/100 pt/well. The cell strain iswas cultured in a CO2 incubator overnight using a Ham's F-12 medium containing a 10% fetal bovine serum, 100 U/mL penicillin, 0.1 mg/mL streptomycin, and 400 μg/mL Geneticin. Calcium 4 Assay Kit (Molecular Devices) was used as a fluorescent calcium indicator. One mL of 77 mg/mL probenecid (Invitrogen) was added to 100 mL of a calcium indicator solution to prepare a solution (loading solution) mixed with a 20 mM HEPES-containing Hanks' balanced salt solution (HBSS) in equal proportions. To the cells from which the culture solution is removed, 200 μl of the loading solution was added, and the cells were cultured in a CO2 incubator for 1 hour. The subject compound was diluted with a 20 mM HEPES-containing HBSS and was added to the cells by 50 μL, and the change in the Ca^2+ concentration was measured with an intracellular ion analyzer. The EC50 value of the subject compound was calculated using the dose-response curve of fluorescence intensity variation.

Some results are limits rather than exact numbers.

T1 sequence (O14842 whole entry): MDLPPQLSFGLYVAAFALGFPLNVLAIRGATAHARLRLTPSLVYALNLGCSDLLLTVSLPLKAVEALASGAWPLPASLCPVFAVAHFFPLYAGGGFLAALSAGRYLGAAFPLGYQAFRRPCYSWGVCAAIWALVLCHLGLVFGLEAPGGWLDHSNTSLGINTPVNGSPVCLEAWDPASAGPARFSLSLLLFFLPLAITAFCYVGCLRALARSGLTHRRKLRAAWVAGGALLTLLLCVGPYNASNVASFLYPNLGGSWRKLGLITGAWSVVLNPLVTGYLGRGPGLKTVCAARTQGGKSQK

The term EC50 denotes the concentration giving half of the maximal effect. For the compound `Cc1cc(OCCCS(C)(=O)=O)cc(C)c1-c1cccc(CNc2ccc(-c3cc(O)n[s+]3[O-])cc2)c1` (stereo not drawn) [Example 2, 5-(4-(((2′,6′-dimethyl-4′-(3-(methylsulfonyl)propoxy)-[1,1′-biphenyl]-3-yl)methyl)amino)phenyl)-3-hydroxyisothiazole 1-oxide], the half-maximal effective concentration (EC50) is < 0.3 µM.
With `[O-][s+]1nc(O)cc1-c1ccc(O[C@@H]2CCc3c(-c4cncc(Cl)c4)cccc32)cc1` (stereo partly drawn) [Example 73, 5-(4-(((R)-4-(5-chloropyridin-3-yl)-2,3-dihydro-1H-inden-1-yl)oxy)phenyl)-3-hydroxyisothiazole 1-oxide], the EC50 is < 0.3 µM.
The same measure for `CNC(=O)c1ccc(Oc2cccc3c2CC[C@H]3Oc2ccc(-c3cc(O)n[s+]3[O-])cc2)cc1` (stereo partly drawn) [Example 136, 4-(((1R)-1-(4-(3-hydroxy-1-oxidoisothiazol-5-yl)phenoxy)-2,3-dihydro-1H-inden-4-yl)oxy)-N-methylbenzamide]: < 0.3 µM.
The same measure for `Cc1ccc(-c2cccc3c2CC[C@H]3Oc2ccc(-c3cc(O)n[s+]3[O-])cc2)c(Cl)c1` (stereo partly drawn) [Example 43, 5-(4-(((R)-4-(2-chloro-4-methylphenyl)-2,3-dihydro-1H-inden-1-yl)oxy)phenyl)-3-hydroxyisothiazole 1-oxide]: < 0.3 µM.
Turning to `[O-][s+]1nc(O)cc1-c1ccc(O[C@@H]2CCc3c(Oc4cccc(C(F)(F)F)c4)cccc32)cc1` (stereo partly drawn) [Example 84, 3-hydroxy-5-(4-(((R)-4-(3-(trifluoromethyl)phenoxy)-2,3-dihydro-1H-inden-1-yl)oxy)phenyl)isothiazole 1-oxide], the EC50 was < 0.3 µM.
With `[O-][s+]1nc(O)cc1-c1ccc(O[C@@H]2CCc3c(Oc4cccc(OC(F)(F)F)c4)cccc32)cc1` (stereo partly drawn) [Example 99, 3-hydroxy-5-(4-(((R)-4-(3-(trifluoromethoxy)phenoxy)-2,3-dihydro-1H-inden-1-yl)oxy)phenyl)isothiazole 1-oxide], the EC50 is < 0.3 µM.
Then `N#Cc1ccc(Oc2cccc3c2CC[C@H]3Oc2ccc(-c3cc(O)n[s+]3[O-])cc2)cn1` (stereo partly drawn) [Example 119, 5-(((1R)-1-(4-(3-hydroxy-1-oxidoisothiazol-5-yl)phenoxy)-2,3-dihydro-1H-inden-4-yl)oxy)picolinonitrile], with < 0.3 µM; and `[O-][s+]1nc(O)cc1-c1ccc(OCc2ccc(Oc3ccccc3)cc2)cc1` (single isomer, unassigned) [Example 160, 3-hydroxy-5-(4-((4-phenoxybenzyl)oxy)phenyl)isothiazole 1-oxide], with < 0.3 µM.
Then `CC(C)c1ccc(-c2cccc3c2CC[C@H]3Oc2ccc(-c3cc(O)n[s+]3[O-])cc2)c(Cl)n1` (stereo partly drawn) [Example 76, 5-(4-(((R)-4-(6-isopropyl-2-chloropyridin-3-yl)-2,3-dihydro-1H-inden-1-yl)oxy)phenyl)-3-hydroxyisothiazole 1-oxide], with < 0.3 µM.
Regarding `[O-][s+]1nc(O)cc1-c1ccc(O[C@@H]2CCc3c(-c4ccc(Cl)cc4C(F)(F)F)cccc32)cc1` (stereo partly drawn) [Example 69, 5-(4-(((R)-4-(4-chloro-2-trifluoromethylphenyl)-2,3-dihydro-1H-inden-1-yl)oxy)phenyl)-3-hydroxyisothiazole 1-oxide], the EC50 is 0.3 to 3 µM.
Then `Cc1cc(-c2cccc3c2CC[C@H]3Oc2ccc(-c3cc(O)n[s+]3[O-])cc2)ccc1F` (stereo partly drawn) [Example 38, 5-(4-(((R)-4-(4-fluoro-3-methylphenyl)-2,3-dihydro-1H-inden-1-yl)oxy)phenyl)-3-hydroxyisothiazole 1-oxide], with < 0.3 µM; and `Cc1ncccc1Oc1cccc2c1CC[C@H]2Oc1ccc(-c2cc(O)n[s+]2[O-])cc1` (stereo partly drawn) [Example 126, 3-hydroxy-5-(4-(((R)-4-((2-methylpyridin-3-yl)oxy)-2,3-dihydro-1H-inden-1-yl)oxy)phenyl)isothiazole 1-oxide], with < 0.3 µM.
Then `N#Cc1ccc(Oc2cccc(COc3ccc(-c4cc(O)n[s+]4[O-])cc3)c2)cc1` (stereo not drawn) [Example 125, 4-(3-((4-(3-hydroxy-1-oxidoisothiazol-5-yl)phenoxy)methyl)phenoxy)benzonitrile], with < 0.3 µM.
The same measure for `CN(C)C(=O)c1ccc(Oc2cccc3c2CC[C@H]3Oc2ccc(-c3cc(O)n[s+]3[O-])cc2)cc1` (stereo partly drawn) [Example 137, 4-(((R)-1-(4-(3-hydroxy-1-oxidoisothiazol-5-yl)phenoxy)-2,3-dihydro-1H-inden-4-yl)oxy)-N,N-dimethylbenzamide]: < 0.3 µM; for `CCOc1ccc(F)cc1-c1cccc2c1CC[C@H]2Oc1ccc(-c2cc(O)n[s+]2[O-])cc1` (stereo partly drawn) [Example 4, 5-(4-(((1R)-4-(2-ethoxy-5-fluorophenyl)-2,3-dihydro-1H-inden-1-yl)oxy)phenyl)-3-hydroxyisothiazole 1-oxide]: < 0.3 µM.
Take `CCOc1ccc(-c2cccc3c2CC[C@H]3Oc2ccc(-c3cc(O)n[s+]3[O-])cc2)cc1` (stereo partly drawn) [Example 7, 5-(4-(((R)-4-(4-ethoxyphenyl)-2,3-dihydro-1H-inden-1-yl)oxy)phenyl)-3-hydroxyisothiazole 1-oxide]: the EC50 is 0.3 to 3 µM.
Then `N#Cc1ccc(Oc2cccc3c2CC[C@H]3Oc2ccc(-c3cc(O)n[s+]3[O-])cc2)cc1N1CCOC1=O` (stereo partly drawn) [Example 131, 4-(((R)-1-(4-(3-hydroxy-1-oxidoisothiazol-5-yl)phenoxy)-2,3-dihydro-1H-inden-4-yl)oxy)-2-(2-oxooxazolidin-3-yl)benzonitrile], with < 0.3 µM.
Then `COc1ccc(-c2cccc3c2CC[C@H]3Oc2ccc(-c3cc(O)n[s+]3[O-])cc2)c(C)c1` (stereo partly drawn) [Example 40, 5-(4-(((R)-4-(4-methoxy-2-methylphenyl)-2,3-dihydro-1H-inden-1-yl)oxy)phenyl)-3-hydroxyisothiazole 1-oxide], with < 0.3 µM.
The same measure for `COc1ccc(Oc2cccc3c2CC[C@H]3Oc2ccc(-c3cc(O)n[s+]3[O-])cc2)cn1` (stereo partly drawn) [Example 100, 3-hydroxy-5-(4-(((R)-4-((6-methoxypyridin-3-yl)oxy)-2,3-dihydro-1H-inden-1-yl)oxy)phenyl)isothiazole 1-oxide]: < 0.3 µM; for `[O-][s+]1nc(O)cc1-c1ccc(OC2CCc3cc(Br)ccc32)cc1` (stereo not drawn) [Example 1, 5-(4-((5-bromo-2,3-dihydro-1H-inden-1-yl)oxy)phenyl)-3-hydroxyisothiazole 1-oxide]: < 0.3 µM.
As for `N#Cc1ccc(Oc2cccc3c2OCC3Oc2ccc(-c3cc(O)n[s+]3[O-])cc2)cc1` (stereo not drawn) [Example 138, 4-((3-(4-(3-hydroxy-1-oxidoisothiazol-5-yl)phenoxy)-2,3-dihydrobenzofuran-7-yl)oxy)benzonitrile], the EC50 was < 0.3 µM.
Then `Cc1cc(OCCC(C)(C)O)cc(C)c1-c1cccc2c1OCC2Oc1ccc(-c2cc(O)n[s+]2[O-])cc1` (single isomer, unassigned) [Example 148-a, 3-hydroxy-5-(4-((7-(4-(3-hydroxy-3-methylbutoxy)-2,6-dimethylphenyl)-2,3-dihydrobenzofuran-3-yl)oxy)phenyl)isothiazole 1-oxide], with < 0.3 µM; and `COc1ccc(OC)c(-c2cccc3c2CC[C@H]3Oc2ccc(-c3cc(O)n[s+]3[O-])cc2)c1` (stereo partly drawn) [Example 54, 5-(4-(((R)-4-(2,5-dimethoxyphenyl)-2,3-dihydro-1H-inden-1-yl)oxy)phenyl)-3-hydroxyisothiazole 1-oxide], with < 0.3 µM.
With `COc1ccc(F)cc1-c1cccc2c1CC[C@H]2Oc1ccc(-c2cc(O)n[s+]2[O-])cc1` (stereo partly drawn) [Example 56, 5-(4-(((R)-4-(5-fluoro-2-methoxyphenyl)-2,3-dihydro-1H-inden-1-yl)oxy)phenyl)-3-hydroxyisothiazole 1-oxide], the EC50 was < 0.3 µM.
For the compound `Cc1ccc(Oc2cccc3c2CC[C@H]3Oc2ccc(-c3cc(O)n[s+]3[O-])cc2)cc1` (stereo partly drawn) [Example 93, 3-hydroxy-5-(4-(((R)-4-(p-tolyloxy)-2,3-dihydro-1H-inden-1-yl)oxy)phenyl)isothiazole 1-oxide], the EC50 is < 0.3 µM.
The same measure for `Cc1cc(OCc2ccccc2)ccc1-c1cccc2c1CC[C@H]2Oc1ccc(-c2cc(O)n[s+]2[O-])cc1` (stereo partly drawn) [Example 47, 5-(4-(((R)-4-(4-benzyloxy-2-methylphenyl)-2,3-dihydro-1H-inden-1-yl)oxy)phenyl)-3-hydroxyisothiazole 1-oxide]: < 0.3 µM; for `COc1cc(Oc2cccc3c2CC[C@H]3Oc2ccc(-c3cc(O)n[s+]3[O-])cc2)ccn1` (stereo partly drawn) [Example 114, 3-hydroxy-5-(4-(((R)-4-((2-methoxypyridin-4-yl)oxy)-2,3-dihydro-1H-inden-1-yl)oxy)phenyl)isothiazole 1-oxide]: < 0.3 µM; for `CC(C)c1ccc(-c2cccc3c2CC[C@H]3Oc2ccc(-c3cc(O)n[s+]3[O-])cc2)cc1` (single isomer, unassigned) [Example 26]: 0.3 to 3 µM.
The same measure for `[O-][s+]1nc(O)cc1-c1ccc(OCC2=CC3(CCCCC3)CCC2)cc1` (stereo not drawn) [Example 120, 3-hydroxy-5-(4-(spiro[5.5]undec-1-en-2-ylmethoxy)phenyl)isothiazole 1-oxide]: 0.3 to 3 µM; for `COc1ccc(Oc2cccc3c2OCC3Oc2ccc(-c3cc(O)n[s+]3[O-])cc2)cn1` (single isomer, unassigned) [Example 152-a, 3-hydroxy-5-(4-((7-((6-methoxypyridin-3-yl)oxy)-2,3-dihydrobenzofuran-3-yl)oxy)phenyl)isothiazole 1-oxide]: < 0.3 µM.

(Values after patent US8629102B2, “3-hydroxyisothiazole 1-oxide derivatives” (Mochida Pharmaceutical Co., Ltd., priority 2011, dated 2014).)
